According to patent publication US10550143B2, “C,O-spiro aryl glycoside compounds, preparation therefor and use thereof” (SHANGHAI INSTITUTE OF MATERIA MEDICA, CHINESE ACADEMY OF …, priority 2015, dated 2020):
Marks after values point to notes of the source that are not given here.

Tests used:
Format in all cases: in vivo, mouse
db/db mice [1] = test: Chronic administration, oral glucose tolerance in db/db mice; settings: glucose tolerance, chronic administration; for AUC0-2 h reduction rate (%): vs vehicle
Method: (§1) Oral gavage administrated, daily dose volume was 10 mL/kg, administered once daily. Administration time was 9: 00-10:00 daily, and the administration period was 5 weeks.
The glucose tolerance of mice of normal control group, model control group, test substance group and positive control group were determined 3 weeks after administration of drug, oral administrated with 1.5 g/kg of glucose, and taken 2 μL of blood on the tail. 4 μL of normal saline was added to 96 well sharp bottom plate to dilute evenly, and then the blood glucose was measured. The blood glucose levels before the sugar administration and at 15, 30, 60, 90 and 120 min after the sugar administration were measured. The true blood glucose level was calculated and the area under the blood glucose curve within 120 min was calculated by the following formula: AUC0-2h (mmol/L·h)=(BG0+BG15)×0.25/2+(BG15+BG30)×0.25/2+(BG30+BG60)×0.5/2+(BG60+[…])×1.0/2 Note: BG0, BG15, BG30, BG60 and BG120 represent the blood glucose levels before the sugar administration, and at 15, 30, 60, and 120 min after sugar administration, respectively. Average hypoglycemic rate %=(solvent control group AUC0-2h−administration group AUC0-2h)/solvent control group AUC0-2h*100%

db/db mice [2] = test: Acute administration at multiple doses, random blood glucose in db/db mice; settings: for Blood glucose level 0 h: before administration
Method: (1) 127 db/db mice (half male and half female) entered the animal laboratory of the institute at 7 weeks of age and were grouped at 10 weeks of age. Random blood glucose and random body weight of all db/db mice were determined at 9:00 am, and then fasted for 6 hours (free drinking). Fasting blood glucose and fasting body weight were determined, and blood was collected (10 μl EDTA+20 μl tail blood, centrifugated to collect supernatant) to determine the insulin content. […] The db/db mice were once orally administered at a dose of 10 mL/kg. Blood glucose levels were measured before administration, and at 1 h, 2 h, 3 h, 4 h, 6 h after administration, and the administration times and body weights were recorded. Mice took food and water freely during the experiment.
Average hypoglycemic rate %=(model control group−administration group)/(model control group−blank control group)*100%

db/db mice [3] = test: Chronic administration, glycosylated hemoglobin level in db/db mice; settings: for HbA1c Decline rate %: vs vehicle
Method: as §1
In the end of the above experiment, the orbital blood was taken from animals of each group and divided into two tubes, one was centrifuged to take blood cells for the determination of glycated hemoglobin content, the other tube was added with 25 μL EDTA in advance, centrifuged and the supernatant was taken to determine the indexes such as triglyceride (TG), total cholesterol (TC), total protein (TP), albumin, low density lipoprotein (LDL), high density lipoprotein (HDL), non-esterified fatty acid (NEFA) and so on.

db/db mice [4] = test: Chronic administration, fasting blood glucose in db/db mice; settings: for fasting blood glucose Pre: before administration; for Hypoglycemic rate % week 1 / Hypoglycemic rate % week 2 / Hypoglycemic rate % week 3 / Hypoglycemic rate % week 4: fasting blood glucose
Method: as §1
The random blood glucose of mice in the normal control group, model control group, test substance administration group and positive control group were determined on the 7th, 14th, 21st, 28th day (9: 00-10:00) every week after the first administration, and food was removed and after 6 hours of starvation, the fasting blood glucose in each group was measured. Free drinking during the hunger process. The rate of decrease of blood glucose was calculated according to the following formula: Average hypoglycemic rate %=(Blood glucose of model control group−Blood glucose of administration group)/Model control group×100%

## CCOc1ccc(Cc2cc([C@@H]3O[C@H](CO)[C@@H](O)[C@H](O)[C@H]3O)ccc2Cl)cc1 [Dapa]
db/db mice [1]; dose 1 mg/kg
  Blood glucose AUC0-2 h: 7.9 ± 1.7
  Blood glucose (mmol/L) 0 min: 10.0 ± 1.0 mmol/L
  Blood glucose (mmol/L) 15 min: 19.9 ± 1.0 mmol/L
  Blood glucose (mmol/L) 30 min: 20.3 ± 1.1 mmol/L
  Blood glucose (mmol/L) 60 min: 11.1 ± 0.5 mmol/L
  Blood glucose (mmol/L) 90 min: 10.8 ± 0.4* * mmol/L
  Blood glucose (mmol/L) 120 min: 11.8 ± 0.5* * mmol/L
  AUC0-2 h reduction rate (%): 48.9%
db/db mice [1]; dose 3 mg/kg
  Blood glucose AUC0-2 h: 9.4 ± 1.7
  Blood glucose (mmol/L) 0 min: 8.6 ± 0.4 mmol/L
  Blood glucose (mmol/L) 15 min: 19.0 ± 1.2 mmol/L
  Blood glucose (mmol/L) 30 min: 20.2 ± 1.8 mmol/L
  Blood glucose (mmol/L) 60 min: 12.0 ± 1.4 mmol/L
  Blood glucose (mmol/L) 90 min: 9.9 ± 0.8 mmol/L
  Blood glucose (mmol/L) 120 min: 9.1 ± 0.6 mmol/L
  AUC0-2 h reduction rate (%): 36.1%
db/db mice [2]; single oral 1 mg/kg
  AUC0-6 h: 67.8 ± 2.5 mmol·h/L
  Blood glucose level 1 h: 13.0 ± 0.7 mmol/L
  Blood glucose level 2 h: 11.4 ± 0.6 mmol/L
  Blood glucose level 3 h: 10.2 ± 0.6 mmol/L
  Blood glucose level 4 h: 9.8 ± 0.7 mmol/L
  Blood glucose level 6 h: 8.8 ± 0.6 mmol/L
  Blood glucose level 0 h: 19.3 ± 1.3 mmol/L
db/db mice [2]; single oral 3 mg/kg
  AUC0-6 h: 59.7 ± 1.7 mmol·h/L
  Blood glucose level 1 h: 11.8 ± 0.5 mmol/L
  Blood glucose level 2 h: 8.5 ± 0.4 mmol/L
  Blood glucose level 3 h: 8.6 ± 0.5 mmol/L
  Blood glucose level 4 h: 8.5 ± 0.3 mmol/L
  Blood glucose level 6 h: 9.4 ± 0.7 mmol/L
  Blood glucose level 0 h: 17.5 ± 1.3 mmol/L
db/db mice [3]; dose 1 mg/kg
  HbA1c (%): 5.79 ± 0.32 %
  HbA1c Decline rate %: 23.7%
db/db mice [3]; dose 3 mg/kg
  HbA1c (%): 5.32 ± 0.26 %
  HbA1c Decline rate %: 29.9%
db/db mice [4]; 1 mg/kg once daily oral
  fasting blood glucose week 1: 9.4 ± 0.6 mmol/L
  fasting blood glucose week 2: 9.0 ± 0.6 mmol/L
  fasting blood glucose week 3: 10.0 ± 1.0 mmol/L
  fasting blood glucose week 4: 9.7 ± 0.7 mmol/L
  fasting blood glucose Pre: 14.0 ± 1.0 mmol/L
  Hypoglycemic rate % week 1: 30.3%
  Hypoglycemic rate % week 2: 59.0%
  Hypoglycemic rate % week 3: 43.9%
  Hypoglycemic rate % week 4: 39.5%
db/db mice [4]; 3 mg/kg once daily oral
  fasting blood glucose week 1: 8.1 ± 0.6 mmol/L
  fasting blood glucose week 2: 7.7 ± 0.6 mmol/L
  fasting blood glucose week 3: 8.6 ± 0.4 mmol/L
  fasting blood glucose week 4: 7.8 ± 0.4 mmol/L
  fasting blood glucose Pre: 13.8 ± 1.2 mmol/L
  Hypoglycemic rate % week 1: 39.8%
  Hypoglycemic rate % week 2: 65.1%
  Hypoglycemic rate % week 3: 51.6%
  Hypoglycemic rate % week 4: 51.0%
